# Entries after “also recorded” stand apart in the source; their conditions may differ. Ends that are not written are not given here.
# Legend:
# [1] = molecular target: T1, µ-opioid receptor (µOR) (Rattus norvegicus, UniProt P33535); format: binding, Wistar rat (brain membranes)
# [2] = molecular target: T1, µ-opioid receptor (µOR); assay: Saturation binding of [^3H]DAMGO with varying G-peptide concentrations; format: Wistar rat (brain membranes)
# T1 sequence (P33535 whole entry): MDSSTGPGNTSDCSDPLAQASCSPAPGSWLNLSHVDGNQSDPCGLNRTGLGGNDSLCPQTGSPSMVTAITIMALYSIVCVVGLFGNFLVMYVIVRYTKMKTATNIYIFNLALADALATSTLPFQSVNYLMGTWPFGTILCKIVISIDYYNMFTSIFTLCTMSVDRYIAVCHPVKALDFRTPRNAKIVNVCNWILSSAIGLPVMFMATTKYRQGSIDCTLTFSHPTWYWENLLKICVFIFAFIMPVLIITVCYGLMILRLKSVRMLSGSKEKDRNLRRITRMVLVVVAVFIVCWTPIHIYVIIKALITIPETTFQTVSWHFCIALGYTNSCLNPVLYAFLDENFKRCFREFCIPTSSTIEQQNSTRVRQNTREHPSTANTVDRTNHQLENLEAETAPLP
substance,measurement,setting,value
IIKNNLKDCGLF-NH2 [G-peptide],G-peptide concentration needed for characteristic shift in the binding curve of morphine,[1],≥ 100 µM
same,affinity of the peptide,[1],micromolar level; also recorded: micromolar range
same,allosteric modulation of µOR,[1],binds the µ-opioid receptor and acts as an allosteric modulator
same,dose dependence of G-peptide effect on morphine binding,[1],increases µOR affinity for its agonist morphine in a dose-dependent way
same,orthosteric binding of the G-peptide,[1],no significant orthosteric coupling to µOR; also recorded: inactive through the orthosteric binding site of µOR; also recorded: did not interact directly with the orthosteric binding site
same,affinity increase caused by the G-peptide,[2]; saturation experiments for [H^3]DAMGO,dose dependency of the affinity increase
same,lowest G-peptide concentration affecting the binding,[2]; saturation experiments with radio-ligand,10 µM
same,Bmax of DAMGO upon adding G-peptide,"[2]; two sets of experiments, G-peptide 0.01 to 25 µM and 0.01 to 200 µM",concentration-dependent decrease in the Bmax value of DAMGO
same,equilibrium dissociation constant Kd and Bmax of DAMGO upon adding G-peptide,[2]; varying concentrations of the G-peptide,change in both the equilibrium dissociation constant Kd and Bmax

# From publication PMC10060287 (Pharmacological Reports, 2023)
